Data: US10722484B2, “Methods of cancer treatment” (K-Gen, Inc., priority 2016, dated 2020)
Where two headings read alike, the source gives them in different places.

Key:
A549 cells = experiment: Soft agar colony formation assay; assay type: cell-based; conditions: for number of colonies formed in soft agar: 7-10 days, 9-point 3-fold dilution series
Description: To prepare a base agar layer (0.6%), melted 1.2% agar solution was mixed 1:1 (v/v) with 2×DMEM/20% FBS medium in a tube by inverting several times, and 50 μL of the mixture was immediately transferred to a well in a 96-well flat-bottom microplate. The plate was placed at 4° C. for 30 minutes to allow the base agar layer to solidify. Then, the cell agar layer (agar 0.4%) was prepared by transferring 75 μL of the cell and agar mixture containing 1:1:1 (v/v/v) of 1.2% agar solution, 2×DMEM/20% FBS and cell suspension (0.4-4×10E5/mL) to each well of the plates so that each well contained 1000-10000 cells per well. The plates were placed at 4° C. for 15 minutes and then 75 μL of media was added to each well. After incubating the plates overnight in a CO2 incubator, 50 μL of media with or without 5× final concentrations of compounds were added to each well. Each compound was tested in 9-point 3-fold dilution series. The plates were incubated for 7-10 days at 37° C. At the end of incubation period, 28 μL of Calcein AM solution (5 μM) was added to the center of each well. The plates were incubated at 37° C. for 45 minutes before scanning on Acumen (TTP Labtech). Each compound was tested in triplicates. Data was analyzed and compound EC50s were calculated using GraphPad Prism 5.

Pan2.03 = experiment: Proliferation assay (CellTiter Glo); assay type: cell-based; conditions: 96 hours; for Top Inhibition %: % of top inhibition
Description: (§1) The dose range for most compounds was 4.6 nM-30 μM. The dose ranges for some compounds were adjusted downward to 0.46 nM-3 μM or 0.08 nM-0.5 μM or 0.03 nM-0.2 μM. […] The results are shown in Tables 3-6 for pancreatic cancer, lung cancer, colon/gastric cancer, and leukemia.

H441 = experiment: Proliferation assay (CellTiter Glo); assay type: cell-based; conditions: 96 hours; for Top Inhibition %: % of top inhibition; for EC50: Homo sapiens, NCI-H441
Description: as §1

HCT116 = experiment: Proliferation assay (CellTiter Glo); assay type: cell-based; conditions: 96 hours; for Top Inhibition %: % of top inhibition; for EC50: Homo sapiens, HCT-116
Description: as §1

Capan-1 = experiment: Proliferation assay (CellTiter Glo); assay type: cell-based; conditions: 96 hours; for Top Inhibition %: % of top inhibition; for EC50: Homo sapiens
Description: as §1

AsPC-1 = experiment: Proliferation assay (CellTiter Glo); assay type: cell-based; conditions: 96 hours; for Top Inhibition %: % of top inhibition; for EC50: Homo sapiens, ASPC1
Description: as §1

KP-4 = experiment: Proliferation assay (CellTiter Glo); assay type: cell-based; conditions: 96 hours; for EC50: Homo sapiens; for Top Inhibition %: % of top inhibition
Description: as §1

H727 = experiment: Proliferation assay (CellTiter Glo); assay type: cell-based; conditions: 96 hours; for Top Inhibition %: % of top inhibition; for EC50: Homo sapiens, NCI-H727
Description: as §1

H358 = experiment: Proliferation assay (CellTiter Glo); assay type: cell-based; conditions: HE58, 96 hours; for Top Inhibition %: % of top inhibition; for EC50: Homo sapiens, NCI-H358
Description: as §1

CCRF-CEM = experiment: Proliferation assay (CellTiter Glo); assay type: cell-based; conditions: 96 hours; for Top Inhibition %: % of top inhibition; for EC50: Homo sapiens
Description: as §1

A549 = experiment: Proliferation assay (CellTiter Glo); assay type: cell-based; conditions: 96 hours; for Top Inhibition %: % of top inhibition; for EC50: Homo sapiens
Description: as §1

phospho-PKC (pan) = experiment: Western blot analysis of PKC signaling pathway elements in A549 cells; assay type: cell-based; conditions: for phospho-PKC (pan) levels: 48 hours, K103, K102 at 0.5 μM, K101A at […]
Description: (§2) Cancer cells (2-8 million cells) were seeded in 10 cm dishes and grown overnight. For A549 lung cancer cell line, about 3 million cells were seeded. Cells were then treated with different drugs at concentrations described in Table 8 for a period of time up to 48 hours. Cells were lysed in 0.3-0.5 mL of RIPA buffer (Sigma) supplemented with protease inhibitors (Roche) and phosphatase inhibitors (Sigma). Lysates were assayed for protein concentration using BCA kit (Pierce). Normalized amount of lysates (20-30 μg protein/lane) were run on 4-12% NuPage gel (Life Technologies) and the proteins were transferred to the PVDF or nitrocellulose membrane using iBlot® Transfer Stack (Life Technologies). The membranes were probed with primary antibodies shown in Table 9 at 4° C. overnight after blocking with 1×TBST containing 5% non-fat milk. Antibodies from other vendors could also be used in Western blot analysis. After washing 5 times with 1×TBS containing 0.1% Tween20, the membranes were probed with 2nd antibodies Anti-mouse IgG Dylight 800 conjugate or Anti-rabbit IgG DyLight 680 conjugate (1:10000; Cell signaling or similar IR 2nd antibodies from different vendors) at room temperature for one hour. After washing 5 times, the membranes were scanned using Odyssey® Imaging System (Licor Biosciences).

[1] = test system: leukemia inhibitory factor (LIF); experiment: as above; assay type: cell-based; conditions: for protein levels of the leukemia inhibitory factor (LIF): Western blot, concentrations of Table 8 (K101A 0.1, 0.5, […]; K101E […]; K102 0.1, 0.5 μM; K103 0.01 μM; Ref1 1 μM; Ref2 0.01 μM)
Description: as §2

HL60 = experiment: Proliferation assay (CellTiter Glo); assay type: cell-based, human; conditions: 96 hours; for Top Inhibition %: % of top inhibition; for EC50: Homo sapiens, HL-60
Description: as §1

THP1 = experiment: Proliferation assay (CellTiter Glo); assay type: cell-based, human; conditions: 96 hours; for EC50: Homo sapiens, THP-1; for Top Inhibition %: % of top inhibition
Description: as §1

[2] = Pan2.03 (K-RAS: G12D), absolute EC50, read-out: Ab EC50
[3] = Pan2.03, relative EC50, read-out: Re EC50
[4] = H441 (K-RAS: G12V), absolute EC50, read-out: Ab EC50
[5] = H441, relative EC50, read-out: Re EC50
[6] = HCT116 (K-RAS: G13D), absolute EC50, read-out: Ab EC50
[7] = HCT116, relative EC50, read-out: Re EC50
[8] = Capan-1 (K-RAS: G12V), absolute EC50, read-out: Ab EC50
[9] = AsPC-1 (K-RAS: G12D), absolute EC50, read-out: Ab EC50
[10] = AsPC-1, relative EC50, read-out: Re EC50
[11] = KP-4 (K-RAS: G12C), absolute EC50, read-out: Ab EC50
[12] = H727 (K-RAS: G12V), absolute EC50, read-out: Ab EC50
[13] = H727, relative EC50, read-out: Re EC50
[14] = absolute EC50, read-out: Ab EC50
[15] = relative EC50, read-out: Re EC50
[16] = CCRF-CEM (K-RAS: G12D), absolute EC50, read-out: Ab EC50
[17] = CCRF-CEM, relative EC50, read-out: Re EC50
[18] = A549 (K-RAS: G12S), absolute EC50, read-out: Ab EC50
[19] = HL60 (N-RAS: Q61L), absolute EC50, read-out: Ab EC50
[20] = THP1 (N-RAS: G12D), absolute EC50, read-out: Ab EC50
[21] = Capan-1, relative EC50, read-out: Re EC50
[22] = KP-4, relative EC50, read-out: Re EC50
[23] = A549, relative EC50, read-out: Re EC50
[24] = HL60, relative EC50, read-out: Re EC50
[25] = THP1, relative EC50, read-out: Re EC50

SMILES	number of colonies formed in soft agar (A549 cells)	EC50 (Pan2.03; [2]) [µM]	Top Inhibition % (Pan2.03; Pan2.03) [%]	EC50 (Pan2.03; [3]) [µM]	Top Inhibition % (H441; H441) [%]	EC50 (H441; [4]) [µM]	EC50 (H441; [5]) [µM]	Top Inhibition % (HCT116; HCT116) [%]	EC50 (HCT116; [6]) [µM]	Top Inhibition % (Capan-1; Capan-1) [%]	EC50 (Capan-1; [8]) [µM]	Top Inhibition % (AsPC-1; AsPC-1) [%]	EC50 (AsPC-1; [9]) [µM]	EC50 (AsPC-1; [10]) [µM]	EC50 (KP-4; [11]) [µM]	Top Inhibition % (KP-4; KP-4) [%]	Top Inhibition % (H727; H727) [%]	EC50 (H727; [12]) [µM]	EC50 (H727; [13]) [µM]	Top Inhibition % (H358) [%]	further results
CCCCCCCCCCCCCC(=O)O[C@@H]1[C@@H](C)[C@@]2(O)[C@@H](C=C(CO)C[C@]3(O)C(=O)C(C)=C[C@@H]23)[C@@H]2C(C)(C)[C@]12OC(C)=O [Compound K103, 12-O-Tetradecanoylphorbol-13-acetate]	reduced the number of colonies formed by A549 cells in a dose-dependent manner	> 0.5	32.2	0.0009	46.7	> 0.5	0.00075	21.4	> 0.5	51.0	0.014	32.7	> 0.5	0.0013	< 0.0046	70.3	57.4	0.0022	0.00037	59.6	rank of potency in soft agar assay (A549 cells; order K103, K102, K101A, K101E): Most potent; EC50 (HCT116; [7]): 0.0012 µM; EC50 (H358; [14]): 0.0022 µM; EC50 (H358; [15]): 0.0004 µM; Top Inhibition % (CCRF-CEM; CCRF-CEM): 37.7%; EC50 (CCRF-CEM; [16]): > 0.5 µM; EC50 (CCRF-CEM; [17]): 0.00024 µM; Top Inhibition % (A549; A549): 80.6%; EC50 (A549; [18]): < 0.0046 µM; phospho-PKC (pan) levels (phospho-PKC (pan)): reduction; protein levels of the leukemia inhibitory factor (LIF) [1]: did not affect; Top Inhibition % (HL60; HL60): 60.0%; EC50 (HL60; [19]): < 0.0046 µM; EC50 (THP1; [20]): < 0.0046 µM; Top Inhibition % (THP1; THP1): 52.9%
C/C=C(/C)C(=O)O[C@H]1C(C)=C[C@]23C(=O)[C@@H](C=C(CO)[C@@H](O)[C@]12O)[C@H]1[C@@H](C[C@H]3C)C1(C)C [Compound K102, ingenol-3-angelate]	reduced the number of colonies formed by A549 cells in a dose-dependent manner	> 3	36.9	0.0033	50.6	1.01	0.0024	23.2	> 3	46.9	> 30	37.8	> 3	0.014	0.015	62.2	61.0	0.022	0.0043	57.5	EC50 (HCT116; [7]): 0.021 µM; EC50 (Capan-1; [21]): 0.013 µM; EC50 (KP-4; [22]): 0.015 µM; EC50 (H358; [14]): 0.097 µM; EC50 (H358; [15]): 0.0045 µM; Top Inhibition % (CCRF-CEM; CCRF-CEM): 30.3%; EC50 (CCRF-CEM; [16]): > 3 µM; EC50 (CCRF-CEM; [17]): 0.0009 µM; Top Inhibition % (A549; A549): 80.8%; EC50 (A549; [18]): 0.017 µM; EC50 (A549; [23]): 0.017 µM; phospho-PKC (pan) levels (phospho-PKC (pan)): reduction; protein levels of the leukemia inhibitory factor (LIF) [1]: did not affect; Top Inhibition % (HL60; HL60): 60.1%; EC50 (HL60; [19]): 0.015 µM; EC50 (HL60; [24]): 0.014 µM; EC50 (THP1; [20]): 0.015 µM; EC50 (THP1; [25]): 0.012 µM; Top Inhibition % (THP1; THP1): 52.4%
CC(=O)O[C@@]12C[C@@H](C)[C@@]3(O)[C@@H](C=C(CO)C[C@]4(O)C(=O)C(C)=C[C@@H]34)[C@@H]1C2(C)C [Compound K101A, 12-deoxyphorbol 13-acetate]	reduced the number of colonies formed by A549 cells in a dose-dependent manner	> 30	27.0	0.12	42.1	> 30	0.32	17.4	> 30	37.1	> 30	32.4	> 30	0.27	0.4	63.3	48.3	> 30	0.19	56.4	EC50 (Capan-1; [21]): 0.31 µM; EC50 (KP-4; [22]): 0.19 µM; EC50 (H358; [14]): 4.9 µM; EC50 (H358; [15]): 0.16 µM; Top Inhibition % (CCRF-CEM; CCRF-CEM): 35.9%; EC50 (CCRF-CEM; [16]): > 30 µM; EC50 (CCRF-CEM; [17]): 0.051 µM; Top Inhibition % (A549; A549): 76.0%; EC50 (A549; [18]): 0.49 µM; EC50 (A549; [23]): 0.27 µM; phospho-PKC (pan) level (phospho-PKC (pan); 0.5 μM): without affecting; phospho-PKC (pan) levels (phospho-PKC (pan)): reduction; LIF protein level ([1]; 0.5 μM): lowered; protein levels of the leukemia inhibitory factor (LIF) [1]: dose-dependent reduction; Top Inhibition % (HL60; HL60): 61.3%; EC50 (HL60; [19]): 0.47 µM; EC50 (HL60; [24]): 0.4 µM; EC50 (THP1; [20]): 0.87 µM; EC50 (THP1; [25]): 0.3 µM; Top Inhibition % (THP1; THP1): 51.8%
